Assay results from US12559475B2, “Tetrazine compound capable of having rapid cycloaddition reaction with non-strained olefinic boronic acid and biomedical application thereof” (NANJING UNIVERSITY, priority 2024, dated 2026).

Key:
[1] = Stability testing of tetrazine compounds in 10% FBS/DMEM (HPLC residual amount); type: physicochemical; conditions: 100 µM, 2.5% DMSO
Description: Specific implementation method: The tetrazine compounds were respectively dissolved in a 10% FBS/DMEM solution at a concentration of 100 µM (the solution contained 2.5% DMSO as a solubilizing agent), and residual amounts of tetrazine compounds were monitored via HPLC after 6 hours and 24 hours to analyze the stability of tetrazine compounds in a biological environment.

[2] = Reaction rate testing of tetrazine compounds and styryl boronic acid (HPLC); conditions: tetrazine 1 mM, styryl boronic acid 0.2 mM, methanol
Description: Specific implementation method: HPLC was used to test reaction rates by monitoring residual amounts of tetrazine compounds after different tetrazine compounds reacted with styryl boronic acid, where a molar concentration of the tetrazine compounds was 1 mM, and a molar concentration of styryl boronic acid was 0.2 mM, and a solvent was methanol solution.

[3] = system: HepG2 cells; assay: Toxicity (MTT cell survival) in HepG2 cells; type: cell-based; conditions: for IC50: Homo sapiens, HepG2, 48 h incubation, 1% FBS DMEM, MTT
Description: Toxicity of the tetrazine Tz-2, the doxorubicin prodrug DOX-VBA, the addition product, and the doxorubicin DOX were first tested.
HepG2 cells were plated in a 96-well plate and attached overnight; 1% FBS DMEM was used as a culture medium on the next day, different concentrations of Tz-2, DOX-VBA, product, and DOX were then added to the culture medium, and incubation was performed at 37° C. for 48 h; and 50 μL 1×MTT was added, the reaction continued for 4 h, DMSO was added to remove the culture medium, and cell survival rates at different concentrations were tested to calculate IC50 values (the cell survival rates were shown in FIG. 6).

[4] = Molecular release testing of tetrazine compound and styryl boronic acid derivative VBA-2 (NMR); conditions: Tz-2 + VBA-2, 0.02 M, deuterated DMSO:deuterated H2O=9:1, NMR
Description: Specific implementation method: the tetrazine compound Tz-2 and the styryl boronic acid derivative VBA-2 were dissolved in a deuterated solution (deuterated DMSO:deuterated H2O=9:1) at a molar concentration of 0.02 M. Reactions after 5 min, 12 h and 24 h were tested using a 500 MHz a nuclear magnetic resonance analyzer, and characteristic signal peaks of reactants and products on a hydrogen spectrum were tested to assess molecular release.

| SMILES | residual amount of tetrazine compound ([1]; 6 h) [%] | residual amount of tetrazine compound ([1]; 24 h) [%] | k2 [2] [M⁻¹ s⁻¹] | IC50 [3] [nM] | toxicity (in words) ([3]; HepG2 cells) | time in which half of the benzylamine molecules were released [4] [h] |
| --- | --- | --- | --- | --- | --- | --- |
| c1ccc(-c2nnc(-c3ccccn3)nn2)nc1 [Tz-Py, reference compound] | 35 | 1 | 1.4 | – | – | – |
| COc1ccnc(-c2nnc(-c3ccccc3)nn2)c1C [Tz-1] | 99 | 85 | 56 | – | – | – |
| COc1cccc2c1C(=O)c1c(O)c3c(c(O)c1C2=O)C[C@@](O)(C(=O)CO)C[C@@H]3O[C@H]1C[C@H](N)[C@H](O)[C@H](C)O1 [DOX, doxorubicin, reference compound] | – | – | – | 500 | – | – |
| COc1ccnc(-c2nnc(-c3ccc(CNC(=O)OC(C)(C)C)cc3)nn2)c1C [Tz-11] | 99 | 92 | 23 | – | – | – |
| COc1c(C)cnc(-c2nnc(-c3ccccc3)nn2)c1C [Tz-16] | 99 | 90 | 28 | – | – | – |
| COc1ccnc(-c2nnc(-c3ccc(NC(=O)OC(C)(C)C)cc3)nn2)c1C [Tz-10] | 99 | 92 | 45 | – | – | – |
| COc1ccnc(-c2nnc(-c3ccccn3)nn2)c1C [Tz-2] | 55 | 17 | 168 | > 100000 | non-toxic | 12 |
